This is an account of results in patent US8039481B2, “Tetrahydrofuran derivatives for use as inhibitors of matrix metalloproteinases” (Sanofi-Aventis, priority 2005, dated 2011).

Molecules are shown by their SMILES. Some results are limits rather than exact numbers.

Assay [1] addresses T1, catalytic domain of human collagenase-1 (MMP-1) (Homo sapiens, UniProt P03956).
T1 construct: Determination of the Enzymatic Activity of the Catalytic Domain of Human Collagenase-1 (MMP-1); purchased Biocol, Potsdam MMP1
T1 sequence (P03956 100-269 limits assumed): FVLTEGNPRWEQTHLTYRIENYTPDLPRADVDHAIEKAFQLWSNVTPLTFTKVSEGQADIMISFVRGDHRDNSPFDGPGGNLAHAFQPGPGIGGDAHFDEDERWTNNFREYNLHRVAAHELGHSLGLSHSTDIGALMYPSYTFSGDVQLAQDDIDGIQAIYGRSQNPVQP
As to the kind of experiment: Enzymatic activity of the catalytic domain of human collagenase-1 (MMP-1), fluorogenic substrate. It counts as biochemical. The method, then:
Determination of the Enzymatic Activity of the Catalytic Domain of Human Collagenase-1 (MMP-1)
Activation of the proenzyme: 2 parts by volume of proenzyme are incubated with 1 part by volume of APMA solution at 37° C. for 1 hour. The APMA solution is prepared from a 10 mmol/l p-aminophenylmercuric acetate solution in 0.1 mmol/l NaOH by dilution with 3 parts by volume of tris/HCl buffer pH7.5 (see below). The pH is adjusted to between 7.0 and 7.5 by adding 1 mmol/l HCl. After activation of the enzyme, it is diluted with the tris/HCl buffer to a concentration of 2.5 μg/ml.
The enzymic activity is measured by incubating 10 μl of enzyme solution with 10 μl of a 3% strength (v/v) buffered dimethyl sulfoxide solution (reaction 1) for 15 minutes. The enzyme inhibitor activity is measured by incubating 10 μl of enzyme solution with 10 μl of a 3% strength (v/v) buffered dimethyl sulfoxide solution which contains the enzyme inhibitor (reaction 2).
The enzymic reaction both in the case of reaction 1 and in the case of reaction 2 is followed after addition of 10 μl of a 3% strength (v/v) aqueous dimethyl sulfoxide solution which contains 0.3 mmol/l of the substrate by fluorescence spectroscopy (328 nm (extinction)/393 nm (emission)), and the enzymic activity is presented as increase in extinction per minute.
The effect of the inhibitor is calculated as percentage inhibition by the following formula: % inhibition=100−[(increase in extinction/minute in reaction 2)/(increase in extinction/minute in reaction 1)×100].
The IC50, i.e. the inhibitor concentration necessary for 50% inhibition of the enzymic activity, is determined graphically by plotting the percentage inhibitions at various inhibitor concentrations.
The buffer solution contains 0.05% Brij (Sigma, Deisenhofen, Germany) and 0.1 mol/l tris/HCl, 0.1 mol/l NaCl, 0.01 mol/l CaCl2 (pH=7.5). The enzyme solution contains 2.5 μg/ml of the enzyme domain.
The substrate solution contains 0.3 mmol/l of the fluorogenic substrate (7-methoxycoumarin-4-yl)acetyl-Pro-Leu-Gly-Leu-3-(2′,4′-dinitrophenyl)-L-2,3-diaminopropionyl-Ala-Arg-NH2 (Bachem, Heidelberg, Germany).

The target of assay [2] is T2, catalytic domain of human collagenase-3 (MMP-13) (Homo sapiens, UniProt P45452).
T2 construct: Determination of the Enzymatic Activity of the Catalytic Domain of Human Collagenase-3 (MMP-13); purchased INVITEK, Berlin 30 100 803
As to the kind of experiment: Enzymatic activity of the catalytic domain of human collagenase-3 (MMP-13), fluorogenic substrate. It counts as biochemical. The method, then: Determination of the Enzymatic Activity of the Catalytic Domain of Human Collagenase-3 (MMP-13)
Activation of the proenzyme: 2 parts by volume of proenzyme were incubated with 1 part by volume of APMA solution at 37° C. for 1.5 hours. The APMA solution was prepared from a 10 mmol/l p-aminophenylmercuric acetate solution in 0.1 mmol/l NaOH by dilution with 3 parts by volume of Tris/HCl buffer pH 7.5 (see below). The pH was adjusted to between 7.0 and 7.5 by adding 1 mmol/l HCl. After activation of the enzyme it was diluted with the Tris/HCl buffer to a concentration of 1.67 μg/ml.
The enzymic activity was measured by incubating 10 μl of enzyme solution with 10 μl of a 3% strength (v/v) buffered dimethyl sulfoxide solution (reaction 1) for 15 minutes. The enzyme inhibitor activity was measured by incubating 10 μl of enzyme solution with 10 μl of a 3% strength (v/v) buffered dimethyl sulfoxide solution which contained the enzyme inhibitor (reaction 2).
The enzymic reaction both in the case of reaction 1 and in the case of reaction 2 was followed after addition of 10 μl of a 3% strength (v/v) aqueous dimethyl sulfoxide solution which contained 0.075 mmol/l of the substrate by fluorescence spectroscopy (328 nm (extinction)/393 nm (emission)).
The enzymic activity has been presented as increase in extinction/minute. The effect of the inhibitor was calculated as percentage inhibition by the following formula: % inhibition=100−[(increase in extinction/minute in reaction 2)/(increase in extinction/minute in reaction 1)×100].
The IC50, which is the concentration of inhibitor which is necessary for 50% inhibition of the enzymic activity, was determined graphically by plotting the percentage inhibitions at various inhibitor concentrations.
The buffer solution contained 0.05% Brij (Sigma, Deisenhofen, Germany) and 0.1 mol/l Tris/HCl, 0.1 mol/l NaCl, 0.01 mol/l CaCl2 (pH=7.5). The enzyme solution contained 1.67 μg/ml of the enzyme domain. The substrate solution contained 0.075 mmol/l of the fluorogenic substrate (7-methoxycoumarin-4-yl)acetyl-Pro-Leu-Gly-Leu-3-(2′,4′-dinitrophenyl)-L-2,3-diaminopropionyl-Ala-Arg-NH2 (Bachem, Heidelberg, Germany).

For `O=C(NO)C1C2CCOC2CCN1S(=O)(=O)c1ccc(-c2ccc(Cl)cc2)cc1` (stereo not shown) [Example 7, 5-(4′-chlorobiphenyl-4-sulfonyl)octahydrofuro[3,2-c]pyridine-4-(N-hydroxy)-carboxamide], the values for the IC50 in assay [1] and in assay [2] were 29 nM and 1.8 nM, respectively.

Consider `O=C(NO)C1C2CCOC2CCN1S(=O)(=O)c1ccc(Oc2ccc(Cl)cc2)cc1` (stereo not shown) [Example 18, 5-[4-(4-chlorophenoxy)benzenesulfonyl]octahydrofuro[3,2-c]pyridine-4-(N-hydroxy)-carboxamide], for which the IC50 was 43 nM in assay [1] and 1 nM in assay [2].

In the case of `O=C(NO)[C@@H]1[C@@H]2CCO[C@@H]2CCN1S(=O)(=O)c1ccc(Oc2ccc(F)cc2)cc1` [Example 13], the IC50 is 1400 nM in assay [1] and 63 nM in assay [2].

Take `N#Cc1ccc(Oc2ccc(S(=O)(=O)N3CC[C@@H]4OCC[C@@H]4[C@@H]3C(=O)NO)cc2)cc1` [Example 21]: the half-inhibitory concentration (IC50) was found to be 59 nM in assay [1] and 1 nM in assay [2].

Regarding `O=C(O)C1C2CCOC2CCN1S(=O)(=O)c1ccc(Oc2ccc(F)cc2)cc1` (stereo not shown) [Example 10, 5-[4-(4-fluorophenoxy)benzenesulfonyl]octahydrofuro[3,2-c]pyridine-4-carboxylic acid], the results for the IC50 in assay [1] and in assay [2] were greater than 10000 nM and 520 nM, respectively.

On to `CS(=O)(=O)c1ccc(Oc2ccc(S(=O)(=O)N3CC[C@@H]4OCC[C@@H]4[C@@H]3C(=O)NO)cc2)cc1` [Example 23], for which the IC50 was found to be 640 nM in assay [1] and 1 nM in assay [2].

Take `O=C(O)C1C2CCOC2CCN1S(=O)(=O)c1ccc(-c2ccc(Cl)cc2)cc1` (stereo not shown) [Example 6, 5-(4′-chlorobiphenyl-4-sulfonyl)octahydrofuro[3,2-c]pyridine-4-carboxylic acid]: the IC50 in assay [1] is greater than 10000 nM; in assay [2] it was 290 nM.

With `O=C(NO)[C@H]1[C@H]2CCO[C@H]2CCN1S(=O)(=O)c1ccc(Oc2ccc(F)cc2)cc1` [Example 12], the IC50 in assay [1] amounted to 10 nM; in assay [2] it was 0.7 nM.

As for `O=C(NO)[C@@H]1[C@@H]2CCO[C@@H]2CCN1S(=O)(=O)c1ccc(-c2ccc(Cl)cc2)cc1` [Example 9], the IC50 was 4100 nM in assay [1] and 58 nM in assay [2].

For `O=C(NO)C1C2CCOC2CCN1S(=O)(=O)c1ccc(Oc2ccc(F)cc2)cc1` (stereo not shown) [Example 11, 5-[4-(4-fluorophenoxy)benzenesulfonyl]octahydrofuro[3,2-c]pyridine-4-(N-hydroxy)-carboxamide], the IC50 came out at 39 nM in assay [1] and 2 nM in assay [2].

In the case of `O=C(NO)[C@H]1[C@H]2CCO[C@H]2CCN1S(=O)(=O)c1ccc(-c2ccc(Cl)cc2)cc1` [Example 8], the IC50 in assay [1] is 14 nM; in assay [2] it was 1 nM.

In general, IC50 refers to the concentration that gives 50% inhibition.
